Assay results published in patent US9676782B2, “Substituted pyrazolo[1,5-a]pyrazines as negative allosteric modulators of metabotropic glutamate receptor 3” (Vanderbilt University, priority 2014, dated 2017).
pEC50, pIC50: −log10 of the molar value. Where two headings read alike, the source gives them in different places. Each block holds one compound with its values, some of them ahead of it.

Experiments:
[1] = molecular target: rat mGlu5 (Rattus norvegicus (Rat), UniProt P31424); test: mGlu5 Ca2+ flux assay; type: cell-based; details: for Fold selectivity (mGlu3 vs. mGlu5): ratio of rat mGlu5 EC50 or IC50 to rat mGlu3 IC50; for pEC50: read-out: rat mGlu5 EC50 or IC50; for Emax at 30 µM: PAM, amplitude of response at 30 μM test compound as % of maximal response to glutamate, read-out: rat mGlu5 Glu max (%)
Chain of rat mGlu5 (P31424 21-1203): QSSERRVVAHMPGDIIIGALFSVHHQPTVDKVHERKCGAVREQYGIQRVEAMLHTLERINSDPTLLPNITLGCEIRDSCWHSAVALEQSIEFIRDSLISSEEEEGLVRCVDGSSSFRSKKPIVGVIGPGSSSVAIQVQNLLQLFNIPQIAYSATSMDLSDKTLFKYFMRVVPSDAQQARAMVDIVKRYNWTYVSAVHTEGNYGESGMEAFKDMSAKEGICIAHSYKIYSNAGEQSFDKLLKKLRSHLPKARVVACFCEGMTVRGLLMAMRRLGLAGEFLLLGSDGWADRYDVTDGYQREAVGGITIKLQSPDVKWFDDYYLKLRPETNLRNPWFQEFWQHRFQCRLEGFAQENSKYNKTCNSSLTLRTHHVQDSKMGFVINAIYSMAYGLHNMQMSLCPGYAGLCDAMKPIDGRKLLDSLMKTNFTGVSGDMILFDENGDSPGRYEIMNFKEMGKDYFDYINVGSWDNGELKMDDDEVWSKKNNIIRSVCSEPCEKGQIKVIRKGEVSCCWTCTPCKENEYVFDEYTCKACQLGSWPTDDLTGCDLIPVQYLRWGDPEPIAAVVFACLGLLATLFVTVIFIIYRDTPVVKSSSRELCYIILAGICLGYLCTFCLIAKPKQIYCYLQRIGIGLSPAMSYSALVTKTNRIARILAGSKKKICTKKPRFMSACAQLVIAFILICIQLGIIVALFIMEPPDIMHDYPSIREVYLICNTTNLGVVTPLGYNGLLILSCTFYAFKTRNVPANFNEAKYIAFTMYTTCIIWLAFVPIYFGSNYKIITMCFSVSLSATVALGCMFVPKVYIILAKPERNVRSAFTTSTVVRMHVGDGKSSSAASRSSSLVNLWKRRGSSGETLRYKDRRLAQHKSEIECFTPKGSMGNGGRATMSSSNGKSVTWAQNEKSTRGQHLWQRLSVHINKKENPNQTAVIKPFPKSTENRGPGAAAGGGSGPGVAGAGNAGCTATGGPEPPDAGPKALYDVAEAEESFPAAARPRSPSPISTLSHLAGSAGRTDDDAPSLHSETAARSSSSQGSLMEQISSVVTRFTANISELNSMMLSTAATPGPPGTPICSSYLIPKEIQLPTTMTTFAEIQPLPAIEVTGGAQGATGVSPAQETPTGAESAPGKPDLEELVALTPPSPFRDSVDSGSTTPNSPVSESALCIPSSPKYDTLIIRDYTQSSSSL
Method: (§1) The cells were grown overnight at 37° C. in the presence of 5% CO2. […] Dye was removed, 20 μL of assay buffer was added, and the plate was incubated for 5 minutes at room temperature. Ca^2+ flux was measured using the Functional Drug Screening System (FDSS7000, Hamamatsu, Japan). […] All test compounds were dissolved and diluted to a concentration of 10 mM in 100% DMSO. […] Calcium fluorescence measures were recorded as fold over basal fluorescence; raw data was then normalized to the maximal response to glutamate. […] The raw data file containing all time points was used as the data source in the analysis template. This was saved by the FDSS as a tab-delimited text file. Data were normalized using a static ratio function (F/F0) for each measurement of the total 360 values per well divided by each well's initial value. […] This is sufficient time to capture the peak amplitude of the cellular calcium response. […] EC50 values for test compounds were generated by fitting the normalized values versus the log of the test compound concentration (in mol/L) using a 4 parameter logistic equation where none of the parameters were fixed. Each of the three values collected at each concentration of test compound were weighted evenly.

[2] = molecular target: rat mGlu3 (Rattus norvegicus (Rat), UniProt P31422); test: mGlu3 Ca2+ flux assay; type: cell-based; details: for remaining activity at 30 µM: amplitude of response at 30 μM test compound as % of maximal response to glutamate, read-out: rat mGlu3 Glu max (%); for pIC50: read-out: rat mGlu3 IC50
Chain of rat mGlu3 (P31422 23-879): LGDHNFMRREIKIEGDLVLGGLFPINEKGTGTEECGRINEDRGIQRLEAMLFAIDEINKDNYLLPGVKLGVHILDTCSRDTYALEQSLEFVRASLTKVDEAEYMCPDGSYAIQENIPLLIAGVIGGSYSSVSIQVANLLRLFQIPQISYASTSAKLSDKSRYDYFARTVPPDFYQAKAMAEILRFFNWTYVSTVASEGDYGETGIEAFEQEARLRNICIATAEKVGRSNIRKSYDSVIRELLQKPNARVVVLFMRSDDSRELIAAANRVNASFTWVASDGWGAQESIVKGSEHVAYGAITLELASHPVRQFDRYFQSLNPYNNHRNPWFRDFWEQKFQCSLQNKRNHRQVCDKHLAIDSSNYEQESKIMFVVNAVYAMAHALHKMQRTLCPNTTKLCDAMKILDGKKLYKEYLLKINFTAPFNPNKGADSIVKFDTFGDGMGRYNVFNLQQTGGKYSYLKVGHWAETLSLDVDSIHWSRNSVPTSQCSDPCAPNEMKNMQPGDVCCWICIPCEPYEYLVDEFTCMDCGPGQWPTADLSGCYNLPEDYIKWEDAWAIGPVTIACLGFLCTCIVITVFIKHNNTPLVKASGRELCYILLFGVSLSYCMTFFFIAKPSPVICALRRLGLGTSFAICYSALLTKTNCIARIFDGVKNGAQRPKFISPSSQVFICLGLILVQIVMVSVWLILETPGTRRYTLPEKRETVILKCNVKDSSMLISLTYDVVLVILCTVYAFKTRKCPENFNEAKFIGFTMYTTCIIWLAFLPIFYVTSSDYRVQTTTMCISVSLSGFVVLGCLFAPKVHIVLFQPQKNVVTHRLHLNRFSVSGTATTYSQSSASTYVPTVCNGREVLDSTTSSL
Method: as §1, with “for 10” for “for 5”

[3] = NAM potency, decrease of glutamate EC80 response, >30,000 = no measurable activity, >10,000 = no plateau

Compound: CC(C)c1ccc(NCc2cc3n(n2)CCN(c2ccc(F)cc2)C3=O)cc1 [Compound 23, 5-(4-fluorophenyl)-2-(((4-isopropylphenyl)amino)methyl)-6,7-dihydropyrazolo[1,5-a]pyrazin-4(5H)-one]
- Fold selectivity (mGlu3 vs. mGlu5) [1]: >3
- pEC50 [1]: < 4.52
- remaining activity at 30 µM [2]: 28.9%
- pIC50 [2]: < 5.00

Compound: CS(=O)(=O)c1ccc(NCc2cc3n(n2)CCN(c2ccc(F)cc2)C3=O)cc1 [Compound 25, 5-(4-fluorophenyl)-2-(((4-(methylsulfonyl)phenyl)amino)methyl)-6,7-dihydropyrazolo[1,5-a]pyrazin-4(5H)-one]
- Fold selectivity (mGlu3 vs. mGlu5) [1]: >3
- pEC50 [1]: < 4.52
- remaining activity at 30 µM [2]: 66.9%
- pIC50 [2]: < 5.00

Compound: O=C1c2cc(CNc3cccc(F)c3F)nn2CCN1c1ccc(F)cc1 [Compound 27, 2-(((2,3-difluorophenyl)amino)methyl)-5-(4-fluorophenyl)-6,7-dihydropyrazolo[1,5-a]pyrazin-4(5H)-one]
- Emax at 30 µM [1]: 90.8%
- Fold selectivity (mGlu3 vs. mGlu5) [1]: 4.06
- pEC50 [1]: 5.62
- pIC50 [2, 3]: 6.23
- remaining activity at 30 µM [2]: 2.82%

Compound: O=C1c2cc(CNc3ccc(F)cc3F)nn2CCN1c1ccc(F)cc1 [Compound 28, 2-(((2,4-difluorophenyl)amino)methyl)-5-(4-fluorophenyl)-6,7-dihydropyrazolo[1,5-a]pyrazin-4(5H)-one]
- Emax at 30 µM [1]: 80.6%
- Fold selectivity (mGlu3 vs. mGlu5) [1]: 1.21
- pEC50 [1]: 5.82
- pIC50 [2, 3]: 5.90
- remaining activity at 30 µM [2]: 1.76%

Compound: O=C1c2cc(CNc3cc(F)ccc3F)nn2CCN1c1ccc(F)cc1 [Compound 29, 2-(((2,5-difluorophenyl)amino)methyl)-5-(4-fluorophenyl)-6,7-dihydropyrazolo[1,5-a]pyrazin-4(5H)-one]
- Emax at 30 µM [1]: 87.5%
- Fold selectivity (mGlu3 vs. mGlu5) [1]: 3.23
- pEC50 [1]: 5.79
- pIC50 [2, 3]: 6.29
- remaining activity at 30 µM [2]: 2.45%

Compound: O=C1c2cc(CNc3cc(F)cc(F)c3)nn2CCN1c1ccc(F)cc1 [Compound 30, 2-(((3,5-difluorophenyl)amino)methyl)-5-(4-fluorophenyl)-6,7-dihydropyrazolo[1,5-a]pyrazin-4(5H)-one]
- Emax at 30 µM [1]: 102%
- Fold selectivity (mGlu3 vs. mGlu5) [1]: 8.73
- pEC50 [1]: 5.19
- pIC50 [2, 3]: 6.13
- remaining activity at 30 µM [2]: 2.71%

Compound: O=C1c2cc(CNc3ccc(F)c(F)c3)nn2CCN1c1ccc(F)cc1 [Compound 31, 2-(((3,4-difluorophenyl)amino)methyl)-5-(4-fluorophenyl)-6,7-dihydropyrazolo[1,5-a]pyrazin-4(5H)-one]
- Emax at 30 µM [1]: 75.8%
- Fold selectivity (mGlu3 vs. mGlu5) [1]: 5.37
- pEC50 [1]: 5.61
- pIC50 [2, 3]: 6.34
- remaining activity at 30 µM [2]: 2.02%

Compound: O=C1c2cc(CNc3c(F)cccc3F)nn2CCN1c1ccc(F)cc1 [Compound 32, 2-(((2,6-difluorophenyl)amino)methyl)-5-(4-fluorophenyl)-6,7-dihydropyrazolo[1,5-a]pyrazin-4(5H)-one]
- Emax at 30 µM [1]: 84.1%
- Fold selectivity (mGlu3 vs. mGlu5) [1]: 8.41
- pEC50 [1]: 5.05
- pIC50 [2, 3]: 5.98
- remaining activity at 30 µM [2]: 1.25%

Compound: O=C1c2cc(CNc3c(F)cc(F)cc3F)nn2CCN1c1ccc(F)cc1 [Compound 33, 5-(4-fluorophenyl)-2-(((2,4,6-trifluorophenyl)amino)methyl)-6,7-dihydropyrazolo[1,5-a]pyrazin-4(5H)-one]
- Emax at 30 µM [1]: 89.7%
- Fold selectivity (mGlu3 vs. mGlu5) [1]: 0.87
- pEC50 [1]: 5.95
- pIC50 [2, 3]: 5.90
- remaining activity at 30 µM [2]: 1.82%

Compound: O=C1c2cc(CNc3ccc(Cl)cc3F)nn2CCN1c1ccc(F)cc1 [Compound 34, 2-(((4-chloro-2-fluorophenyl)amino)methyl)-5-(4-fluorophenyl)-6,7-dihydropyrazolo[1,5-a]pyrazin-4(5H)-one]
- Fold selectivity (mGlu3 vs. mGlu5) [1]: >35
- pEC50 [1]: < 4.52
- pIC50 [2, 3]: 6.07
- remaining activity at 30 µM [2]: 3.18%

Compound: Cc1ccc(NCc2cc3n(n2)CCN(c2ccc(F)cc2)C3=O)c(F)c1 [Compound 35, 2-(((2-fluoro-4-methylphenyl)amino)methyl)-5-(4-fluorophenyl)-6,7-dihydropyrazolo[1,5-a]pyrazin-4(5H)-one]
- Emax at 30 µM [1]: 97.4%
- Fold selectivity (mGlu3 vs. mGlu5) [1]: 5.97
- pEC50 [1]: 5.32
- pIC50 [2, 3]: 6.10
- remaining activity at 30 µM [2]: 1.68%

Compound: Cc1cc(NCc2cc3n(n2)CCN(c2ccc(F)cc2)C3=O)ccc1F [Compound 36, 2-(((4-fluoro-3-methylphenyl)amino)methyl)-5-(4-fluorophenyl)-6,7-dihydropyrazolo[1,5-a]pyrazin-4(5H)-one]
- Fold selectivity (mGlu3 vs. mGlu5) [1]: >17
- pEC50 [1]: < 4.52
- pIC50 [2, 3]: 5.78
- remaining activity at 30 µM [2]: 1.91%

- Emax at 30 µM [1]: 38.4%
- Fold selectivity (mGlu3 vs. mGlu5) [1]: >29
- pEC50 [1]: < 5.00
- remaining activity at 30 µM [2]: 2.57%
- pIC50 [2]: 6.48
Compound: O=C1c2cc(CNc3ccc(OC(F)F)cc3F)nn2CCN1c1ccc(F)cc1 [Compound 37, 2-(((4-(difluoromethoxy)-2-fluorophenyl)amino)methyl)-5-(4-fluorophenyl)-6,7-dihydropyrazolo[1,5-a]pyrazin-4(5H)-one]

Compound: O=C1c2cc(CNc3ccc(OC(F)F)c(F)c3)nn2CCN1c1ccc(F)cc1 [Compound 38, 2-(((4-(difluoromethoxy)-3-fluorophenyl)amino)methyl)-5-(4-fluorophenyl)-6,7-dihydropyrazolo[1,5-a]pyrazin-4(5H)-one]
- Emax at 30 µM [1]: 84.7%
- Fold selectivity (mGlu3 vs. mGlu5) [1]: 3.19
- pEC50 [1]: 5.81
- pIC50 [2, 3]: 6.31
- remaining activity at 30 µM [2]: 2.28%

Compound: O=C1c2cc(CNc3ccc4c(c3)OC(F)(F)O4)nn2CCN1c1ccc(F)cc1 [Compound 39, 2-(((2,2-difluorobenzo[d][1,3]dioxol-5-yl)amino)methyl)-5-(4-fluorophenyl)-6,7-dihydropyrazolo[1,5-a]pyrazin-4(5H)-one]
- Emax at 30 µM [1]: 75.7%
- Fold selectivity (mGlu3 vs. mGlu5) [1]: >3.4
- pEC50 [1]: < 5.00
- pIC50 [2, 3]: 5.54
- remaining activity at 30 µM [2]: 1.95%

Compound: C[C@@H]1CN(c2ccc(F)cc2)C(=O)c2cc(CNc3ccccc3)nn21 [Compound 40, (R)-5-(4-fluorophenyl)-7-methyl-2-((phenylamino)methyl)-6,7-dihydropyrazolo[1,5-a]pyrazin-4(5H)-one]
- Emax at 30 µM [1]: 34.4%
- Fold selectivity (mGlu3 vs. mGlu5) [1]: 3.49
- pEC50 [1]: 5.32
- pIC50 [2, 3]: 5.86
- remaining activity at 30 µM [2]: 5.15%

Compound: C[C@H]1CN(c2ccc(F)cc2)C(=O)c2cc(CNc3ccccc3)nn21 [Compound 41, (S)-5-(4-fluorophenyl)-7-methyl-2-((phenylamino)methyl)-6,7-dihydropyrazolo[1,5-a]pyrazin-4(5H)-one]
- Emax at 30 µM [1]: 81.7%
- Fold selectivity (mGlu3 vs. mGlu5) [1]: 0.17
- pEC50 [1]: 5.87
- pIC50 [2, 3]: 5.09
- remaining activity at 30 µM [2]: -2.27%

Compound: C[C@@H]1CN(c2ccc(F)cc2)C(=O)c2cc(CNc3ccccc3F)nn21 [Compound 42, (R)-5-(4-fluorophenyl)-2-(((2-fluorophenyl)amino)methyl)-7-methyl-6,7-dihydropyrazolo[1,5-a]pyrazin-4(5H)-one]
- Emax at 30 µM [1]: 71.4%
- Fold selectivity (mGlu3 vs. mGlu5) [1]: >11
- pEC50 [1]: < 5.00
- pIC50 [2, 3]: 6.06
- remaining activity at 30 µM [2]: 0.89%

Compound: C[C@H]1CN(c2ccc(F)cc2)C(=O)c2cc(CNc3ccccc3F)nn21 [Compound 43, (S)-5-(4-fluorophenyl)-2-(((2-fluorophenyl)amino)methyl)-7-methyl-6,7-dihydropyrazolo[1,5-a]pyrazin-4(5H)-one]
- Emax at 30 µM [1]: 90.6%
- Fold selectivity (mGlu3 vs. mGlu5) [1]: 2.06
- pEC50 [1]: 5.28
- pIC50 [2, 3]: 5.60
- remaining activity at 30 µM [2]: 1.61%

Compound: Cc1ccccc1NCc1cc2n(n1)[C@H](C)CN(c1ccc(F)cc1)C2=O [Compound 44, (R)-5-(4-fluorophenyl)-7-methyl-2-((o-tolylamino)methyl)-6,7-dihydropyrazolo[1,5-a]pyrazin-4(5H)-one]
- Emax at 30 µM [1]: 23.9%
- Fold selectivity (mGlu3 vs. mGlu5) [1]: >3.7
- pEC50 [1]: < 5.00
- pIC50 [2, 3]: 5.57
- remaining activity at 30 µM [2]: -0.26%
